Consider 24 compounds from patent US9169254B2, “Spiroimidazolone derivative” (Chugai Seiyaku Kabushiki Kaisha, priority 2009, dated 2015).

The target of the experiment is T1, human PTH1 receptor (Homo sapiens, UniProt Q03431).
T1 sequence (Q03431 27-593): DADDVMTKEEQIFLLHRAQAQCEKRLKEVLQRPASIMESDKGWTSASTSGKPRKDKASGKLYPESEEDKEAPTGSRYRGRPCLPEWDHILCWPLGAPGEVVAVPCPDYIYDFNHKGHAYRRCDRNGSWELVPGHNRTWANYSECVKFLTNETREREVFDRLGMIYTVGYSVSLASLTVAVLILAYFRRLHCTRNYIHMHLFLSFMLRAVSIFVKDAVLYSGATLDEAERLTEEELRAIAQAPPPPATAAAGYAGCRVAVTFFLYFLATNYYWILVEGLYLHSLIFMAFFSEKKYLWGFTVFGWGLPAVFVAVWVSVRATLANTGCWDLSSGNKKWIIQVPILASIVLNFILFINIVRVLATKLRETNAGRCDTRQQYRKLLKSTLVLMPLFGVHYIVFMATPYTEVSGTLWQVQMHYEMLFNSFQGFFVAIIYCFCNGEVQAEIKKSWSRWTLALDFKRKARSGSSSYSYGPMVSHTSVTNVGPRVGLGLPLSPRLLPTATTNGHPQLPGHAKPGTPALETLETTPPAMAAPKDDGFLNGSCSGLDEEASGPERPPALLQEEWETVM
The experiment in a line: In vitro cAMP signal activity in HKRK-B7 cells (LLC-PK1 cells overexpressing the human PTH1 receptor). In kind it is cell-based. Particulars: HKRK-B7 cells; compound at 1×10^−3 M; cAMP produced as percentage of that produced by hPTH(1-34) at 100 nM.
Regarding `CN1CCN(C(=O)Nc2ccc(/C=C/S(=O)(=O)N3CCC4(CC3)N=C(C3CCCCC3)NC4=O)c(C(F)(F)F)c2)CC1` [Compound 485, 4-methyl-piperazine-1-carboxylic acid {4-[(E)-2-(2-cyclohexyl-4-oxo-1,3,8-triaza-spiro[4.5]dec-1-ene-8-sulfonyl)-vinyl]-3-trifluoromethyl-phenyl}-amide], the “cAMP production activity (%)” value came out at 7.7%.

As to `CC(C)COC(=O)NCc1ccc(/C=C/S(=O)(=O)N2CCC3(CC2)N=C(C2CCCCC2)NC3=O)cc1` [Compound 486, {4-[(E)-2-(2-cyclohexyl-4-oxo-1,3,8-triaza-spiro[4.5]dec-1-ene-8-sulfonyl)-vinyl]-benzyl}-carbamic acid isobutyl ester], the “cAMP production activity (%)” value was 59%.

On to `O=C1NC(C2CCCCC2)=NC12CCN(S(=O)(=O)/C=C/c1ccc3c(ccn3CCOCCO)c1)CC2` [Compound 487, 2-cyclohexyl-8-((E)-2-{1-[2-(2-hydroxy-ethoxy)-ethyl]-1H-indol-5-yl}-ethenesulfonyl)-1,3,8-triaza-spiro[4.5]dec-1-en-4-one], for which the “cAMP production activity (%)” value is 49%.

In the case of `Cc1cc2[nH]ccc2cc1/C=C/S(=O)(=O)N1CCC2(CC1)N=C(C1CCCCC1)NC2=O` [Compound 488, 2-cyclohexyl-8-[(E)-2-(6-methyl-1H-indol-5-yl)-ethenesulfonyl]-1,3,8-triaza-spiro[4.5]dec-1-en-4-one], the “cAMP production activity (%)” value came out at 48%.

Take `O=C(CO)NCc1ccc(/C=C/S(=O)(=O)N2CCC3(CC2)N=C(C2CCCCC2)NC3=O)cc1` [Compound 489, N-{4-[(E)-2-(2-cyclohexyl-4-oxo-1,3,8-triaza-spiro[4.5]dec-1-ene-8-sulfonyl)-vinyl]-benzyl}-2-hydroxy-acetamide]: the “cAMP production activity (%)” value amounted to 37%.

With `CN(C)C(=O)NCCc1ccc(/C=C/S(=O)(=O)N2CCC3(CC2)N=C(C2CCCCC2)NC3=O)cc1` [Compound 490, 3-(2-{4-[(E)-2-(2-cyclohexyl-4-oxo-1,3,8-triaza-spiro[4.5]dec-1-ene-8-sulfonyl)-vinyl]-phenyl}-ethyl)-1,1-dimethyl-urea], the “cAMP production activity (%)” value came to 26%.

`Nc1cc(C(F)(F)F)c(/C=C/S(=O)(=O)N2CCC3(CC2)N=C(C2CCCCC2)NC3=O)c(C(F)(F)F)c1` [Compound 491, 8-[(E)-2-(4-amino-2,6-bis-trifluoromethyl-phenyl)-ethenesulfonyl]-2-cyclohexyl-1,3,8-triaza-spiro[4.5]dec-1-en-4-one]: the “cAMP production activity (%)” value was 58%.

`O=C1NC(C2CCCCC2)=NC12CCN(S(=O)(=O)/C=C/c1cc3cc[nH]c3cc1C(F)(F)F)CC2` [Compound 492, 2-cyclohexyl-8-[(E)-2-(6-trifluoromethyl-1H-indol-5-yl)-ethenesulfonyl]-1,3,8-triaza-spiro[4.5]dec-1-en-4-one]: the “cAMP production activity (%)” value is reported as 37%.

Regarding `COC(=O)CNc1ccc(/C=C/S(=O)(=O)N2CCC3(CC2)N=C(C2CCCCC2)NC3=O)c(C(F)(F)F)c1` [Compound 493, {4-[(E)-2-(2-cyclohexyl-4-oxo-1,3,8-triaza-spiro[4.5]dec-1-ene-8-sulfonyl)-vinyl]-3-trifluoromethyl-phenylamino}-acetic acid methyl ester], the “cAMP production activity (%)” value was found to be 50%.

Take `O=C(CNc1ccc(/C=C/S(=O)(=O)N2CCC3(CC2)N=C(C2CCCCC2)NC3=O)c(C(F)(F)F)c1)NCCO` [Compound 494, 2-{4-[(E)-2-(2-cyclohexyl-4-oxo-1,3,8-triaza-spiro[4.5]dec-1-ene-8-sulfonyl)-vinyl]-3-trifluoromethyl-phenylamino}-N-(2-hydroxy-ethyl)-acetamide]: the “cAMP production activity (%)” value was found to be 66%.

In the case of `CN(CCO)S(=O)(=O)c1ccc(/C=C/S(=O)(=O)N2CCC3(CC2)N=C(C2CCCCC2)NC3=O)c(C(F)(F)F)c1` [Compound 495, 4-[(E)-2-(2-cyclohexyl-4-oxo-1,3,8-triaza-spiro[4.5]dec-1-ene-8-sulfonyl)-vinyl]-N-(2-hydroxy-ethyl)-N-methyl-3-trifluoromethyl-benzenesulfonamide], the “cAMP production activity (%)” value is recorded as 21%.

Regarding `O=C1NC(C2CCCCC2)=NC12CCN(S(=O)(=O)/C=C/c1ccc(S(=O)(=O)N(CCO)CCO)cc1C(F)(F)F)CC2` [Compound 496, 4-[(E)-2-(2-cyclohexyl-4-oxo-1,3,8-triaza-spiro[4.5]dec-1-ene-8-sulfonyl)-vinyl]-N,N-bis-(2-hydroxy-ethyl)-3-trifluoromethyl-benzenesulfonamide], the “cAMP production activity (%)” value is 24%.

Consider `Cc1cc(NCCN(C)C)ccc1/C=C/S(=O)(=O)N1CCC2(CC1)N=C(C1CCCCC1)NC2=O` [Compound 497, 2-cyclohexyl-8-{(E)-2-[4-(2-dimethylamino-ethylamino)-2-methyl-phenyl]-ethenesulfonyl}-1,3,8-triaza-spiro[4.5]dec-1-en-4-one], for which the “cAMP production activity (%)” value came out at 38%.

As to `CC(=O)NCCNC(=O)CNc1ccc(/C=C/S(=O)(=O)N2CCC3(CC2)N=C(C2CCCCC2)NC3=O)c(C(F)(F)F)c1` [Compound 498, N-(2-acetylamino-ethyl)-2-{4-[(E)-2-(2-cyclohexyl-4-oxo-1,3,8-triaza-spiro[4.5]dec-1-ene-8-sulfonyl)-vinyl]-3-trifluoromethyl-phenylamino}-acetamide], the “cAMP production activity (%)” value was 53%.

Turning to `O=C1NC(C2CCCCC2)=NC12CCN(S(=O)(=O)/C=C/c1cc3nc[nH]c3cc1C(F)(F)F)CC2` [Compound 499, 2-cyclohexyl-8-[(E)-2-(6-trifluoromethyl-1H-benzimidazol-5-yl)-ethenesulfonyl]-1,3,8-triaza-spiro[4.5]dec-1-en-4-one], the “cAMP production activity (%)” value was 40%.

For the compound `CC1(C)OC[C@H](Cn2ccc3c(/C=C/S(=O)(=O)N4CCC5(CC4)N=C(C4CCCCC4)NC5=O)c(F)ccc32)O1` [Compound 500, 2-cyclohexyl-8-{(E)-2-[1-((S)-2,2-dimethyl-[1,3]dioxolan-4-ylmethyl)-5-fluoro-1H-indol-4-yl]-ethenesulfonyl}-1,3,8-triaza-spiro[4.5]dec-1-en-4-one], the “cAMP production activity (%)” value came to 61%.

As to `CN(CCO)c1ccc(/C=C/S(=O)(=O)N2CCC3(CC2)N=C(C2CCCCC2)NC3=O)c(C(F)(F)F)c1` [Compound 501, 2-cyclohexyl-8-((E)-2-{4-[(2-hydroxy-ethyl)-methyl-amino]-2-trifluoromethyl-phenyl}-ethenesulfonyl)-1,3,8-triaza-spiro[4.5]dec-1-en-4-one], the “cAMP production activity (%)” value was found to be 59%.

`Cc1cc(C(=O)N2CCS(=O)(=O)CC2)ccc1/C=C/S(=O)(=O)N1CCC2(CC1)N=C(C1CCCCC1)NC2=O` [Compound 502, 2-cyclohexyl-8-{(E)-2-[4-(1,1-dioxo-1λ^6-thiomorpholine-4-carbonyl)-2-methyl-phenyl]-ethenesulfonyl}-1,3,8-triaza-spiro[4.5]dec-1-en-4-one]: the “cAMP production activity (%)” value came out at 14%.

Take `Cc1cc(S(=O)(=O)NCCN(C)C)ccc1/C=C/S(=O)(=O)N1CCC2(CC1)N=C(C1CCCCC1)NC2=O` [Compound 503, 4-[(E)-2-(2-cyclohexyl-4-oxo-1,3,8-triaza-spiro[4.5]dec-1-ene-8-sulfonyl)-vinyl]-N-(2-dimethylamino-ethyl)-3-methyl-benzenesulfonamide]: the “cAMP production activity (%)” value stood at 67%.

On to `Cc1cc(N2C(=O)CNC2=O)ccc1/C=C/S(=O)(=O)N1CCC2(CC1)N=C(C1CCC(C)CC1)NC2=O` (stereo not drawn) [Compound 504, 3-(3-methyl-4-{(E)-2-[2-(4-methyl-cyclohexyl)-4-oxo-1,3,8-triaza-spiro[4.5]dec-1-ene-8-sulfonyl]-vinyl}-phenyl)-imidazolidine-2,4-dione], for which the “cAMP production activity (%)” value is reported as 60%.

In the case of `Cc1cc(N2C(=O)CN(C)C2=O)ccc1/C=C/S(=O)(=O)N1CCC2(CC1)N=C(C1CCC(C)CC1)NC2=O` (stereo not drawn) [Compound 505, 1-methyl-3-(3-methyl-4-{(E)-2-[2-(4-methyl-cyclohexyl)-4-oxo-1,3,8-triaza-spiro[4.5]dec-1-ene-8-sulfonyl]-vinyl}-phenyl)-imidazolidine-2,4-dione], the “cAMP production activity (%)” value amounted to 61%.

As to `CC(=O)Nc1ccc(/C=C/S(=O)(=O)N2CCC3(CC2)N=C(C2CCC(C)CC2)NC3=O)c(OC(C)C)c1` (stereo not drawn) [Compound 506, N-(3-isopropoxy-4-{(E)-2-[2-(4-methyl-cyclohexyl)-4-oxo-1,3,8-triaza-spiro[4.5]dec-1-ene-8-sulfonyl]-vinyl}-phenyl)-acetamide], the “cAMP production activity (%)” value is 83%.

For `Cc1cc(N2C(=O)NC(C)(C)C2=O)cc(C)c1/C=C/S(=O)(=O)N1CCC2(CC1)N=C(C1CCC(C)CC1)NC2=O` (stereo not drawn) [Compound 507, 3-(3,5-dimethyl-4-{(E)-2-[2-(4-methyl-cyclohexyl)-4-oxo-1,3,8-triaza-spiro[4.5]dec-1-ene-8-sulfonyl]-vinyl}-phenyl)-5,5-dimethyl-imidazolidine-2,4-dione], the “cAMP production activity (%)” value was determined as 43%.

As for `Cc1cc(N2C(=O)N(C)C(C)(C)C2=O)cc(C)c1/C=C/S(=O)(=O)N1CCC2(CC1)N=C(C1CCC(C)CC1)NC2=O` (stereo not drawn) [Compound 508, 3-(3,5-dimethyl-4-{(E)-2-[2-(4-methyl-cyclohexyl)-4-oxo-1,3,8-triaza-spiro[4.5]dec-1-ene-8-sulfonyl]-vinyl}-phenyl)-1,5,5-trimethyl-imidazolidine-2,4-dione], the “cAMP production activity (%)” value turned out to be 24%.
